According to patent US11628146B2, “Estrogen receptor ligand treatment for neurodegenerative diseases” (The Regents of the University of California, priority 2014, dated 2023):

Assay: Dissolution of the compound in the oil vehicle
Format: physicochemical
Conditions: merely pipetting
Protocol: Reagents. AC-186 was dissolved in either Miglyol 812N liquid oil (Sasol North America) or sesame oil (Sigma Aldrich) as following concentration; 1.5 mg/mL for 3 mg/kg group, 5 mg/mL for 10 mg/kg group, and 15 mg/mL for 30 mg/kg group. Diarylpropionitrile (DPN, Tocris Biosciences) was dissolved in 10% molecular-grade ethanol and diluted with 90% of either Miglyol 812N liquid oil or sesame oil.
Three doses of the AC-186 compound were tested in C57BL6 female mice: low (3 mg/kg, every other day), medium (10 mg/kg, every other day), and high (30 mg/kg, every other day), each injected subcutaneously in a sesame oil vehicle. The ERβ ligand diarylpropionitrile (DPN) was tested as a positive control because DPN can partially ameliorate EAE and because the treatment effects in EAE experiments can vary based on the level of disease severity within an experiment. Direct comparisons between treatments were only made between treatment groups within a single EAE experiment and not between treatment groups of different EAE experiments. […] The difference in improvement between the 30 mg/kg AC-186 group and all other groups increased with time.

For `Oc1ccc(C2(c3ccccc3F)CCC(F)(F)CC2)cc1` [AC-186], the “Time to dissolve in miglyol” value was 30 s.
